The values below come from ChEMBL document CHEMBL5726951, “Small molecule inhibitors of the JAK family of kinases” (2019).

Bounds are passed on as bounds.

Test [1] deals with Tyrosine-protein kinase JAK2 (Homo sapiens, UniProt O60674). The test is described as follows: LC/MS grade water and acetonitrile (ACN), were purchased from HoneyWell, Burdick & Jackson (Muskegon, Mich., USA). […] The compounds were tested in duplicate. Column 12 was used for positive controls, and column 24 contained negative controls with no enzyme added. A compound from our internal collection, with inhibitory activity for JAK isoforms, was used as a reference compound. […] The enzyme reaction was initiated by the addition of 10 μL of enzyme and ATP mixture to 10 μL of substrate solution prepared in reaction buffer (50 mM MOPS pH 7.5, 10 mM MgCl2, 1 mM EDTA, 2 mM DTT, 0.002% Tween-20). The Tyk2 enzyme was pre-incubated with 2 mM ATP for 30 min prior to the reaction initiation. Immediately after the addition of the enzyme to the reaction mixture, the plate was centrifuged at 1000 rpm for 1 minute and incubated at 25° C. for 45 minutes for JAK3 and 90 minutes for JAK1, JAK2 and Tyk2. […] The plates then were transferred on to the RapidFire for the MS analysis. Compound inhibition was assessed by a decrease of the phosphorylated product levels in sample wells compared to the non-inhibited enzyme reaction.
Sequence of Tyrosine-protein kinase JAK2 (O60674 whole entry, canonical isoform): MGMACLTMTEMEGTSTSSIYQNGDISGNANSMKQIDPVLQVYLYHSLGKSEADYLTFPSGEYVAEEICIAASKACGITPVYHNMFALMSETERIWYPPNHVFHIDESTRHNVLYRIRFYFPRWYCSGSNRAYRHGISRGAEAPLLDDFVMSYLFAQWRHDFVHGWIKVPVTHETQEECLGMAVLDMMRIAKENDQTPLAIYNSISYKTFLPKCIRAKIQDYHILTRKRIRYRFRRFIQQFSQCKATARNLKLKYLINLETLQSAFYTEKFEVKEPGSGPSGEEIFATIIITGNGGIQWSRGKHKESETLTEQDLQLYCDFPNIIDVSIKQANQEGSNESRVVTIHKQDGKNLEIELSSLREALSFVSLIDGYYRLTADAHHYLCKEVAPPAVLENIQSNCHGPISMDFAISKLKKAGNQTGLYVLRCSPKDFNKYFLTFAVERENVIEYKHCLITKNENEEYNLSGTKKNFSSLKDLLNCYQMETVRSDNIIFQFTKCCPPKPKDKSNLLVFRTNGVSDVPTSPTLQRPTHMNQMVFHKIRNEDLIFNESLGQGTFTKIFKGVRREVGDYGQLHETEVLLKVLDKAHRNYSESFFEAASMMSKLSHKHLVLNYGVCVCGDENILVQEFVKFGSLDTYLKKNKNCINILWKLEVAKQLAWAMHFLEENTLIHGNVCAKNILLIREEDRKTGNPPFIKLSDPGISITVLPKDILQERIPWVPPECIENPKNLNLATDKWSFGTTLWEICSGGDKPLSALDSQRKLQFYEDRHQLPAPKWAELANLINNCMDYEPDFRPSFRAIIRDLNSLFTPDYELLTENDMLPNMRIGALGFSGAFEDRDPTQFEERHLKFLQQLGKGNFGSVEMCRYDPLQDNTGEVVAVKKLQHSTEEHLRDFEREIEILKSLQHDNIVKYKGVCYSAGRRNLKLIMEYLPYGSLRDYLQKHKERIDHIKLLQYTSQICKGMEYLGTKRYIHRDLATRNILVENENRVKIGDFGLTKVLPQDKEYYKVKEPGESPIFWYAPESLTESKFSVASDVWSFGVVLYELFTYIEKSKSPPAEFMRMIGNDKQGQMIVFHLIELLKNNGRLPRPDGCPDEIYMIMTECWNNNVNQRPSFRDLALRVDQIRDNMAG

For test [2], the target named is Tyrosine-protein kinase JAK1 (Homo sapiens, UniProt P23458). The test is described as follows: (§1) Enzymatic Inhibition Assay: Substrate (NH2-[…]-CO2), internal standard peptide (NH2-[…]-CO2) and product peptide (for standard curve only) (NH2-[…]-Pi-FELVKK-CO2), were purchased from AnaSpec (Fremont, Calif., USA). JAK1-JH1JH2 (574-1154 with a His-GST Tag and a C-terminal tev (ENLYFQ-G) cleavage site), JAK3-JH1JH2 (512-1124 with a GST Tag and a C-terminal tev (ENLYFQ-G) cleavage site), and Tyk2-JH1JH2 (8H_tev_580-1182-C936A-C1142A with a C-terminal tev (ENLYFQ-G) cleavage site) were purified internally. JAK2-JH1JH2 (532-1132 with a GST tag and C-terminal tev (ENLYFQ-G) cleavage site), was purchased from Invitrogen. LC/MS grade water and acetonitrile (ACN), were purchased from HoneyWell, Burdick & Jackson (Muskegon, Mich., USA). Dimethylsulfoxide 99.8% (DMSO) and trifluoroacetic acid 99.5% (TFA) were purchased from EMD Chemical (Gibbstown, N.J., USA). Adenosine triphosphate (ATP), 4-morpholinepropanesulfonic acid (MOPS), magnesium chloride (MgCl2), ethylenediaminetetraacetic acid (EDTA), dithiothreitol (DTT), formic acid>95% (FA) and Tween-20 were purchased from Sigma (St Louis, Mo., USA). 384-well polypropylene plates, Cat#781280 were purchased from Greiner (Monroe, N.C.), RapidFire™ cartridge A C4 Column (Agilent Technologies, Santa Clara, Calif.).The HTMS experiments were performed in positive ionization mode on a RapidFire 300 instrument (Agilent Technologies, Santa Clara, Calif.), coupled with an ABSiex QTrap 4000 system with an Electrospray Ionization source (RF-MS) (Concord, ON, Canada). The RapidFire system was run with 3 Agilent 1200 series isocratic pumps Agilent Technologies (Santa Clara, Calif.) and one peristaltic pump model ISM832C from Ismatec (Wertheim, Germany). The entire system was operated using the RapidFire software interfaced with Analyst software for the mass spectrometer.Assay Protocol11-point dosing series were made for each compound by serially diluting 1:3 or 1:4 in DMSO, with point 12 being a DMSO control. From the serial dilution plates, sample was transferred to a 384 wells assay plate (#781280, Greiner, Monroe, N.C.) using Labcyte Echo (Sunnyvale, Calif.), or Biosero ATS (San Diego, Calif.). The compounds were tested in duplicate. Column 12 was used for positive controls, and column 24 contained negative controls with no enzyme added. A compound from our internal collection, with inhibitory activity for JAK isoforms, was used as a reference compound. The final concentration of DMSO was ≤0.25% in a 20 μL reaction. The enzyme reaction was initiated by the addition of 10 μL of enzyme and ATP mixture to 10 μL of substrate solution prepared in reaction buffer (50 mM MOPS pH 7.5, 10 mM MgCl2, 1 mM EDTA, 2 mM DTT, 0.002% Tween-20). The Tyk2 enzyme was pre-incubated with 2 mM ATP for 30 min prior to the reaction initiation. Immediately after the addition of the enzyme to the reaction mixture, the plate was centrifuged at 1000 rpm for 1 minute and incubated at 25° C. for 45 minutes for JAK3 and 90 minutes for JAK1, JAK2 and Tyk2. The reaction was quenched by the addition of 20 μL of 0.5% TFA containing 0.15 μM of internal standard peptide using Multidrop Combi reagent dispenser (Thermo Scientific, Waltham, Mass.). Several wells in column 24 were typically used for the product standard curve. After the quench, the assay plate was centrifuged at 3000 rpm for 3 minutes and sealed with pierceable aluminum foil (Cat#06644-001, Agilent) using a PlateLoc (Agilent Technologies, Santa Clara, Calif.). The plates then were transferred on to the RapidFire for the MS analysis. Compound inhibition was assessed by a decrease of the phosphorylated product levels in sample wells compared to the non-inhibited enzyme reaction.
Sequence of Tyrosine-protein kinase JAK1 (P23458 whole entry): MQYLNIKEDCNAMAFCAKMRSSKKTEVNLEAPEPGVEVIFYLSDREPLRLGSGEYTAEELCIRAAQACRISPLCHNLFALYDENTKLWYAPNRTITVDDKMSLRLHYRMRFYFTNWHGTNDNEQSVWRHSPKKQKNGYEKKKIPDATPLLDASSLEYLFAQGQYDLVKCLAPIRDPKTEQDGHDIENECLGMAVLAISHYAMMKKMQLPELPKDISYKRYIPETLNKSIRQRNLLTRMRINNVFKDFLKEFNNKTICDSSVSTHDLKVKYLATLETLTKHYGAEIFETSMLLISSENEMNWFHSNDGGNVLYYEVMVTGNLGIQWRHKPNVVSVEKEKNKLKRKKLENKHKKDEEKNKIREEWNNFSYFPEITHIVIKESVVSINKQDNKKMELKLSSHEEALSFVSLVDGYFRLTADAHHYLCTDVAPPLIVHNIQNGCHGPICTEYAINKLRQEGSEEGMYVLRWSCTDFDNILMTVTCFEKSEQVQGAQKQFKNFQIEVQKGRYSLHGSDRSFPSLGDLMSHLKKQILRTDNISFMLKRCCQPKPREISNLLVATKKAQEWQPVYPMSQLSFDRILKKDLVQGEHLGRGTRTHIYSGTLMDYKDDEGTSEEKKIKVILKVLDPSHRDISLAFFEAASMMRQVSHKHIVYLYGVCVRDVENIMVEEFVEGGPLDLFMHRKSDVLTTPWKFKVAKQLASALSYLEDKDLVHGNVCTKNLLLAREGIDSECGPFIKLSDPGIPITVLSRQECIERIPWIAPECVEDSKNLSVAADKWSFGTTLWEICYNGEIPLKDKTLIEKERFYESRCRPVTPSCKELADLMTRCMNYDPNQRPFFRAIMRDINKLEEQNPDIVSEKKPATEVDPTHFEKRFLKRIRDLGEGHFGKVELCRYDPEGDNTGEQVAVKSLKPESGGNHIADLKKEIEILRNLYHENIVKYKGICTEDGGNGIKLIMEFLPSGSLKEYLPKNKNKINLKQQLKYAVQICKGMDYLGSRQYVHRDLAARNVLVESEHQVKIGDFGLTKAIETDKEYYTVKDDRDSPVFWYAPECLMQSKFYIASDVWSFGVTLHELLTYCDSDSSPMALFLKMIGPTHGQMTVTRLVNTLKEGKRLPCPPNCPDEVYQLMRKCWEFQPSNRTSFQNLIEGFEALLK

Test [3] addresses Non-receptor tyrosine-protein kinase TYK2 (Homo sapiens, UniProt P29597, C1142A/C936A). The test is described as §1.
The target of test [4] is T1, Tyrosine-protein kinase JAK3 (Homo sapiens, UniProt P52333).
T1 sequence (P52333 whole entry): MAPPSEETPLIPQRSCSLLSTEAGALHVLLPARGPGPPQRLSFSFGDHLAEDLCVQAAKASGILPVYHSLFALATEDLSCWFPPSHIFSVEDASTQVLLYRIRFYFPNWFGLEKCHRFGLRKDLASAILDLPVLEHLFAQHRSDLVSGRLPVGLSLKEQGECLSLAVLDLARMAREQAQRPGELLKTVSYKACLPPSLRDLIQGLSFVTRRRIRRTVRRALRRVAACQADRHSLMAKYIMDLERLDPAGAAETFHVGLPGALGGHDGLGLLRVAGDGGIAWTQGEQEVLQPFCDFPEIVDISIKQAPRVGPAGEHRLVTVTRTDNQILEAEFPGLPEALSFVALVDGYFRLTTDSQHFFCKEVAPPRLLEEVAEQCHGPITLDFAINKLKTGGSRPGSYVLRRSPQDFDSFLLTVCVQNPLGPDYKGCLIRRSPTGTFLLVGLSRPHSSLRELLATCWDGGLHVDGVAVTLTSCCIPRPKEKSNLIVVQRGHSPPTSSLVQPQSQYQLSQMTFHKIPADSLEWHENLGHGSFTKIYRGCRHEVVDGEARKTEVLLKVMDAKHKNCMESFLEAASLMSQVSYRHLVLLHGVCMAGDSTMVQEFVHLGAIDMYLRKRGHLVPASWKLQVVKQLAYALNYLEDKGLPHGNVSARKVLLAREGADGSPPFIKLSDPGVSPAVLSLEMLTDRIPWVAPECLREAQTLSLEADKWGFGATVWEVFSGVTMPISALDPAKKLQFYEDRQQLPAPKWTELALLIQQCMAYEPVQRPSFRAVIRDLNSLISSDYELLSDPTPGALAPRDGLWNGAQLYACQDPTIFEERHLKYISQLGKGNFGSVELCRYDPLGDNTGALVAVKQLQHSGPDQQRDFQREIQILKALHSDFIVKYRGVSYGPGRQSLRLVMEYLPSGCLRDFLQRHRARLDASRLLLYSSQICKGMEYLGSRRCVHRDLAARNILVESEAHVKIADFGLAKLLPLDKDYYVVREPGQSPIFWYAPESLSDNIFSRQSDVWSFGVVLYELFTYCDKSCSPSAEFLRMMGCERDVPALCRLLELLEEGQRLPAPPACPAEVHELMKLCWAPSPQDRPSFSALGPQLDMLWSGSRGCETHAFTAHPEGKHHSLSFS
The test is described as §1.

Sequence of Non-receptor tyrosine-protein kinase TYK2 (P29597 whole entry C936A/C1142A): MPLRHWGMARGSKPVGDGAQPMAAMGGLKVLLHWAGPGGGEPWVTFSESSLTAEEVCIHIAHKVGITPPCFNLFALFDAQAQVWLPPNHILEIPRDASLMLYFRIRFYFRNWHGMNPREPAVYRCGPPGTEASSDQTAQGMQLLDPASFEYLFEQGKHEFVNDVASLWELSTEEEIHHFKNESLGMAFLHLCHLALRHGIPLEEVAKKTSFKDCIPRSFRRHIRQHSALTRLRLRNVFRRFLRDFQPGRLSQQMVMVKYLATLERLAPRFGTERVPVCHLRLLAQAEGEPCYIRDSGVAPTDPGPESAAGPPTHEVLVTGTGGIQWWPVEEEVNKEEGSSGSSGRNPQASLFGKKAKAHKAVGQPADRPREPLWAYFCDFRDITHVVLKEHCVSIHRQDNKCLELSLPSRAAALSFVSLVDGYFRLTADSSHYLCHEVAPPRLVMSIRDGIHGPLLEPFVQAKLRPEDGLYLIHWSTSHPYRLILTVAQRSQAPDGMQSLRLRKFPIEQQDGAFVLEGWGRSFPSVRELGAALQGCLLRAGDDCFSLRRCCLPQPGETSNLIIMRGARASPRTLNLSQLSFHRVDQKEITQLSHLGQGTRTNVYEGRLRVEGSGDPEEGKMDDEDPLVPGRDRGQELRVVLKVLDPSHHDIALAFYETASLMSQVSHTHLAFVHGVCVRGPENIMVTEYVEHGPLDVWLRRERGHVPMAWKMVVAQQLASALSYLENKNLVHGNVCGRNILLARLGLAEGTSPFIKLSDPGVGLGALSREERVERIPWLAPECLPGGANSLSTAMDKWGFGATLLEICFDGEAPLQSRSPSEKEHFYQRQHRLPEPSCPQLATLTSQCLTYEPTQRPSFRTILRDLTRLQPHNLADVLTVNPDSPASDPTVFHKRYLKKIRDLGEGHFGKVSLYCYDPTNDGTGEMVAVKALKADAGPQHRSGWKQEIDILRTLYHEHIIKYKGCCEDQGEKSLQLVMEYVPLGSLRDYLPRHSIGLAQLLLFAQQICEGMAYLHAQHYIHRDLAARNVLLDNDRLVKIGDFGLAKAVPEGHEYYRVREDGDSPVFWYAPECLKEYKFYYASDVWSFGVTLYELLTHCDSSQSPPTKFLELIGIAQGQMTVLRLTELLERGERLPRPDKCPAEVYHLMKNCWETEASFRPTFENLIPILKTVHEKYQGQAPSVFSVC

On to `N#CC[C@H]1CC[C@H](n2c(CO)nc3cnc4[nH]ccc4c32)CC1`, for which the IC50 (commonly the concentration that gives 50% inhibition) in test [1] is < 0.2 nM; in test [2] it was < 0.2 nM; in test [3], < 0.2 nM; in test [4], 13.4 nM.

`Cc1nc2cnc3[nH]ccc3c2n1[C@H]1CC[C@H](CC#N)CC1`: the IC50 in test [1] was < 0.2 nM; in test [2], < 0.2 nM; in test [3], 0.9 nM; in test [4], 12.4 nM.
